Measurements taken from ChEMBL document CHEMBL1201862, “PubChem BioAssay data set” (2004).
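Where inhibition never reached the appropriate level, the endpoint shown equals the highest concentration tested. Otherwise, values were interpolated linearly from a five-concentration, 48-hour dose response in 96-well plates. GI50 marks 50% less growth.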 Active and inactive are the calls of the source. No stated cut-off is given here; in the data, active = GI50 up to about 1.1 µM and inactive = higher.

How the values were obtained:
Assay in all cases: NCI anticancer screen, dose series, 48 h
786-0 = tested on: 786-0
A498 = tested on: A498
A549 = tested on: A549
ACHN = tested on: ACHN
BT-549 = tested on: BT-549
CAKI-1 = tested on: CAKI-1
COLO 205 = tested on: COLO 205
DU-145 = tested on: DU-145
EKVX = tested on: EKVX
HCT-116 = tested on: HCT-116
HCT-15 = tested on: HCT-15
HL-60 = tested on: HL-60
HOP-62 = tested on: HOP-62
HOP-92 = tested on: HOP-92
HT-29 = tested on: HT-29
Hs-578T = tested on: Hs-578T
IGROV-1 = tested on: IGROV-1
K562 = tested on: K562
KM12 = tested on: KM12
LOX IMVI = tested on: LOX IMVI
M14 = tested on: M14
MCF7 = tested on: MCF7
MDA-MB-231 = tested on: MDA-MB-231
MDA-MB-435 = tested on: MDA-MB-435
MOLT-4 = tested on: MOLT-4
Malme-3M = tested on: Malme-3M
NCI-H226 = tested on: NCI-H226
NCI-H23 = tested on: NCI-H23
NCI-H460 = tested on: NCI-H460
NCI-H522 = tested on: NCI-H522
NCI/ADR-RES = tested on: NCI/ADR-RES
OVCAR-3 = tested on: OVCAR-3
OVCAR-4 = tested on: OVCAR-4
OVCAR-5 = tested on: OVCAR-5
OVCAR-8 = tested on: OVCAR-8
PC-3 = tested on: PC-3
RPMI-8226 = tested on: RPMI-8226
RXF 393 = tested on: RXF 393
SF-268 = tested on: SF-268
SF-295 = tested on: SF-295
SF-539 = tested on: SF-539
SK-MEL-28 = tested on: SK-MEL-28
SK-MEL-2 = tested on: SK-MEL-2
SK-MEL-5 = tested on: SK-MEL-5
SK-OV-3 = tested on: SK-OV-3
SN12C = tested on: SN12C
SNB-19 = tested on: SNB-19
SNB-75 = tested on: SNB-75
SR = tested on: SR
SW-620 = tested on: SW-620
T47D = tested on: T47D
TK-10 = tested on: TK-10
U-251 = tested on: U-251
UACC-257 = tested on: UACC-257
UACC-62 = tested on: UACC-62
UO-31 = tested on: UO-31
CCRF-CEM = tested on: CCRF-CEM
HCC 2998 = tested on: HCC 2998
MDA-N = tested on: MDA-N

CCNCCC1(CC)C(=O)NC(=O)NC1=O
GI50 (786-0): > 100 µM (inactive)
GI50 (A498): > 100 µM (inactive)
GI50 (A549): > 100 µM (inactive)
GI50 (ACHN): > 100 µM (inactive)
GI50 (BT-549): > 100 µM (inactive)
GI50 (CAKI-1): > 100 µM (inactive)
GI50 (COLO 205): > 100 µM (inactive)
GI50 (DU-145): > 100 µM (inactive)
GI50 (EKVX): > 100 µM (inactive)
GI50 (HCT-116): > 100 µM (inactive)
GI50 (HCT-15): > 100 µM
GI50 (HL-60): 0.0288 µM (active)
GI50 (HOP-62): > 100 µM (inactive)
GI50 (HOP-92): > 100 µM (inactive)
GI50 (HT-29): > 100 µM (inactive)
GI50 (Hs-578T): > 100 µM (inactive)
GI50 (IGROV-1): > 100 µM (inactive)
GI50 (K562): > 100 µM (inactive)
GI50 (KM12): > 100 µM (inactive)
GI50 (LOX IMVI): > 100 µM (inactive)
GI50 (M14): > 100 µM (inactive)
GI50 (MCF7): > 100 µM (inactive)
GI50 (MDA-MB-231): > 100 µM (inactive)
GI50 (MDA-MB-435): > 100 µM (inactive)
GI50 (MOLT-4): > 100 µM (inactive)
GI50 (Malme-3M): > 100 µM (inactive)
GI50 (NCI-H226): > 100 µM (inactive)
GI50 (NCI-H23): > 100 µM (inactive)
GI50 (NCI-H460): > 100 µM (inactive)
GI50 (NCI-H522): > 100 µM (inactive)
GI50 (NCI/ADR-RES): > 100 µM (inactive)
GI50 (OVCAR-3): > 100 µM (inactive)
GI50 (OVCAR-4): > 100 µM (inactive)
GI50 (OVCAR-5): > 100 µM (inactive)
GI50 (OVCAR-8): > 100 µM (inactive)
GI50 (PC-3): > 100 µM (inactive)
GI50 (RPMI-8226): > 100 µM (inactive)
GI50 (RXF 393): > 100 µM (inactive)
GI50 (SF-268): > 100 µM (inactive)
GI50 (SF-295): > 100 µM (inactive)
GI50 (SF-539): > 100 µM (inactive)
GI50 (SK-MEL-28): > 100 µM (inactive)
GI50 (SK-MEL-2): > 100 µM (inactive)
GI50 (SK-MEL-5): > 100 µM (inactive)
GI50 (SK-OV-3): > 100 µM (inactive)
GI50 (SN12C): > 100 µM (inactive)
GI50 (SNB-19): > 100 µM (inactive)
GI50 (SNB-75): > 100 µM (inactive)
GI50 (SR): > 100 µM (inactive)
GI50 (SW-620): > 100 µM (inactive)
GI50 (T47D): > 100 µM (inactive)
GI50 (TK-10): > 100 µM (inactive)
GI50 (U-251): > 100 µM (inactive)
GI50 (UACC-257): > 100 µM (inactive)
GI50 (UACC-62): > 100 µM (inactive)
GI50 (UO-31): > 100 µM (inactive)

O=C(O)c1ccccc1C(=O)Nn1cnnc1
GI50 (786-0): > 100 µM (inactive)
GI50 (A549): > 100 µM (inactive)
GI50 (ACHN): > 100 µM (inactive)
GI50 (BT-549): > 100 µM (inactive)
GI50 (CCRF-CEM): > 100 µM (inactive)
GI50 (COLO 205): > 100 µM (inactive)
GI50 (DU-145): > 100 µM (inactive)
GI50 (EKVX): > 100 µM (inactive)
GI50 (HCC 2998): > 100 µM (inactive)
GI50 (HCT-116): > 100 µM (inactive)
GI50 (HCT-15): > 100 µM
GI50 (HOP-62): > 100 µM (inactive)
GI50 (HOP-92): > 100 µM (inactive)
GI50 (HT-29): > 100 µM (inactive)
GI50 (IGROV-1): > 100 µM (inactive)
GI50 (K562): > 100 µM (inactive)
GI50 (KM12): > 100 µM (inactive)
GI50 (LOX IMVI): > 100 µM (inactive)
GI50 (M14): > 100 µM (inactive)
GI50 (MCF7): > 100 µM (inactive)
GI50 (MDA-MB-231): > 100 µM (inactive)
GI50 (MDA-MB-435): > 100 µM (inactive)
GI50 (MDA-N): > 100 µM (inactive)
GI50 (MOLT-4): > 100 µM (inactive)
GI50 (NCI-H23): > 100 µM (inactive)
GI50 (NCI-H522): > 100 µM (inactive)
GI50 (NCI/ADR-RES): > 100 µM (inactive)
GI50 (OVCAR-3): > 100 µM (inactive)
GI50 (OVCAR-4): > 100 µM (inactive)
GI50 (OVCAR-5): > 100 µM (inactive)
GI50 (OVCAR-8): > 100 µM (inactive)
GI50 (PC-3): > 100 µM (inactive)
GI50 (RPMI-8226): > 100 µM (inactive)
GI50 (RXF 393): > 100 µM (inactive)
GI50 (SF-268): > 100 µM (inactive)
GI50 (SF-295): > 100 µM (inactive)
GI50 (SF-539): > 100 µM (inactive)
GI50 (SK-MEL-28): > 100 µM (inactive)
GI50 (SK-MEL-2): > 100 µM (inactive)
GI50 (SK-MEL-5): > 100 µM (inactive)
GI50 (SK-OV-3): > 100 µM (inactive)
GI50 (SN12C): > 100 µM (inactive)
GI50 (SNB-19): > 100 µM (inactive)
GI50 (SNB-75): > 100 µM (inactive)
GI50 (SW-620): > 100 µM (inactive)
GI50 (TK-10): > 100 µM (inactive)
GI50 (U-251): > 100 µM (inactive)
GI50 (UACC-257): > 100 µM (inactive)
GI50 (UACC-62): > 100 µM (inactive)
GI50 (UO-31): > 100 µM (inactive)

COc1cc(N2C(=O)C(=O)C3(CCCCC3)C2=O)cc(OC)c1OC
GI50 (786-0): > 100 µM (inactive)
GI50 (A549): > 100 µM (inactive)
GI50 (ACHN): > 100 µM (inactive)
GI50 (BT-549): > 100 µM (inactive)
GI50 (CAKI-1): > 100 µM (inactive)
GI50 (CCRF-CEM): > 100 µM (inactive)
GI50 (COLO 205): > 100 µM (inactive)
GI50 (DU-145): > 100 µM (inactive)
GI50 (EKVX): > 100 µM (inactive)
GI50 (HCC 2998): > 100 µM (inactive)
GI50 (HCT-116): > 100 µM (inactive)
GI50 (HCT-15): > 100 µM
GI50 (HL-60): > 100 µM (inactive)
GI50 (HOP-62): 57.5 µM (inactive)
GI50 (HT-29): > 100 µM (inactive)
GI50 (K562): > 100 µM (inactive)
GI50 (KM12): > 100 µM (inactive)
GI50 (LOX IMVI): > 100 µM (inactive)
GI50 (M14): > 100 µM (inactive)
GI50 (MCF7): > 100 µM (inactive)
GI50 (MDA-MB-435): > 100 µM (inactive)
GI50 (MDA-N): > 100 µM (inactive)
GI50 (MOLT-4): > 100 µM (inactive)
GI50 (Malme-3M): > 100 µM (inactive)
GI50 (NCI-H226): > 100 µM (inactive)
GI50 (NCI-H23): > 100 µM (inactive)
GI50 (NCI-H522): > 100 µM (inactive)
GI50 (NCI/ADR-RES): > 100 µM (inactive)
GI50 (OVCAR-3): > 100 µM (inactive)
GI50 (OVCAR-4): > 100 µM (inactive)
GI50 (OVCAR-5): > 100 µM (inactive)
GI50 (OVCAR-8): > 100 µM (inactive)
GI50 (PC-3): > 100 µM (inactive)
GI50 (RPMI-8226): > 100 µM (inactive)
GI50 (RXF 393): > 100 µM (inactive)
GI50 (SF-268): > 100 µM (inactive)
GI50 (SF-295): > 100 µM (inactive)
GI50 (SF-539): > 100 µM (inactive)
GI50 (SK-MEL-28): > 100 µM (inactive)
GI50 (SK-MEL-2): > 100 µM (inactive)
GI50 (SK-MEL-5): > 100 µM (inactive)
GI50 (SK-OV-3): > 100 µM (inactive)
GI50 (SN12C): > 100 µM (inactive)
GI50 (SNB-19): > 100 µM (inactive)
GI50 (SNB-75): > 100 µM (inactive)
GI50 (SR): > 100 µM (inactive)
GI50 (SW-620): > 100 µM (inactive)
GI50 (T47D): > 100 µM (inactive)
GI50 (TK-10): > 100 µM (inactive)
GI50 (U-251): > 100 µM (inactive)
GI50 (UACC-257): > 100 µM (inactive)
GI50 (UACC-62): > 100 µM (inactive)
GI50 (UO-31): 73.3 µM (inactive)
